Measured values published in US20050095240A1, “NaCT as a target for lifespan expansion and weight reduction” (Medical College of Georgia Research, priority 2002, published 2005).

Tests used:
mouse NaCT = biological target: T1, mouse NaCT (Mus musculus, UniProt Q67BT3); experiment: Transport via mouse NaCT expressed in HRPE cells; format: cell-based; details: for [^3H]-Succinate transport (NaCT-specific) / [^3H]-Succinate transport, %: [3H]-succinate 0.1 μM; for [^3H]-Succinate transport (NaCT-specific) / [^3H]-Succinate transport, % / [^14C]-Citrate transport (NaCT-specific) / [^14C]-Citrate transport, %: substrate analog 2 mM; for [^3H]-Succinate transport, % / [^14C]-Citrate transport, %: control = 100; for [^14C]-Citrate transport (NaCT-specific) / [^14C]-Citrate transport, %: [14C]-citrate 10 μM
T1 sequence (Q67BT3 1-572): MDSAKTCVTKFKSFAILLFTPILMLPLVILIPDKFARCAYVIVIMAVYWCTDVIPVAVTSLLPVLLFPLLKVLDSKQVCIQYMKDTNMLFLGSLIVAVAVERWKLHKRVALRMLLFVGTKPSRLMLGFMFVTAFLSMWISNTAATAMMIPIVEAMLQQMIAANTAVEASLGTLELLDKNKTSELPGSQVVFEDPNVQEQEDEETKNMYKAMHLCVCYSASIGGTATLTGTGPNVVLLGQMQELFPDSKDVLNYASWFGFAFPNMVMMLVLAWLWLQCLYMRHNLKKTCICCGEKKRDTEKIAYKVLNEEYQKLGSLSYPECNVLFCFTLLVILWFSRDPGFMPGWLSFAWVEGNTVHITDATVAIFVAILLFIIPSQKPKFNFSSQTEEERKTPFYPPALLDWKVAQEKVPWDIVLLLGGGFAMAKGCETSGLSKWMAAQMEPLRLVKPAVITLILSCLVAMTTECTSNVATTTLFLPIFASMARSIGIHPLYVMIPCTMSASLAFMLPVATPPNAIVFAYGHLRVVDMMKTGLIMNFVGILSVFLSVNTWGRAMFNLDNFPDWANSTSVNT

hNaDC3 [1] = biological target: T2, hNaDC3 (Homo sapiens, UniProt Q8WWT9); experiment: cell-based
T2 sequence (Q8WWT9 1-602): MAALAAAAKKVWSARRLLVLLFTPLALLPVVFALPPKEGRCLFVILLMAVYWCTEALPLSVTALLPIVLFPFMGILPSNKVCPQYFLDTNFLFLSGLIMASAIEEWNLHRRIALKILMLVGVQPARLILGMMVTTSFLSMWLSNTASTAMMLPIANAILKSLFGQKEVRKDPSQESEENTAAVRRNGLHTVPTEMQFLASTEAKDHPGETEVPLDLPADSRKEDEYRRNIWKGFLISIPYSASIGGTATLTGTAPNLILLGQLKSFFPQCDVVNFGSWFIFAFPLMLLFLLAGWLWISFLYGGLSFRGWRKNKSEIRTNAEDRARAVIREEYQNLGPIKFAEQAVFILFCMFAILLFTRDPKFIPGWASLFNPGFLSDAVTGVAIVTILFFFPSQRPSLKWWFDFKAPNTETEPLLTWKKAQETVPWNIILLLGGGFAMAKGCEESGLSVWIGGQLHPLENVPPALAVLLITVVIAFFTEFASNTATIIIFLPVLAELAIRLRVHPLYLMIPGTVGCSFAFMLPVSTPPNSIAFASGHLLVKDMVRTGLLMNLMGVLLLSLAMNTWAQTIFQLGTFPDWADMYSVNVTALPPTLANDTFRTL

NaDC1 = details: cited from earlier work
rat NaDC3 = biological target: T3, rat NaDC3 (Rattus norvegicus, UniProt Q9Z0Z5); details: medium with 135 μM citrate and 40 μM succinate
T3 sequence (Q9Z0Z5 1-600): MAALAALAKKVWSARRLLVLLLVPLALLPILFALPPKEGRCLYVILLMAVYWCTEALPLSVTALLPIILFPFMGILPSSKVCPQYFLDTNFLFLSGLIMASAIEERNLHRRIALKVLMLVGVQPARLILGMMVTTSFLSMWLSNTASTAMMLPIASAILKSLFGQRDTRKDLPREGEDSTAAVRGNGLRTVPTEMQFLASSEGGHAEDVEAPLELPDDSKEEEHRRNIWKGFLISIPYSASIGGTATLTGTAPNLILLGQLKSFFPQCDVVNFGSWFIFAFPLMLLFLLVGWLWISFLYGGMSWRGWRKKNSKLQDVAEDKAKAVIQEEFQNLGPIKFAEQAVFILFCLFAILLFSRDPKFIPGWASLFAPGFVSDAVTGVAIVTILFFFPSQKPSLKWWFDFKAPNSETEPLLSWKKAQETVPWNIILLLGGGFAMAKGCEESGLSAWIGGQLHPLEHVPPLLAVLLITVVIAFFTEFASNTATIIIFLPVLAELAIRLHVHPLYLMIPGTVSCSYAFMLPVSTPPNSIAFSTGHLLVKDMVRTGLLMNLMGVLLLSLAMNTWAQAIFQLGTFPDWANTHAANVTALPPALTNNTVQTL

drIndy = drIndy (Drosophila melanogaster, UniProt Q9VVT2); details: succinate 0.1 μM
hNaDC3 [2] = biological target: T2, hNaDC3; details: read-out: Km for succinate, hNaDC3; as determined by Wang et al.; cited from earlier work
NaDC3 = details: cited from earlier work

Sequence of drIndy (Q9VVT2 19-590): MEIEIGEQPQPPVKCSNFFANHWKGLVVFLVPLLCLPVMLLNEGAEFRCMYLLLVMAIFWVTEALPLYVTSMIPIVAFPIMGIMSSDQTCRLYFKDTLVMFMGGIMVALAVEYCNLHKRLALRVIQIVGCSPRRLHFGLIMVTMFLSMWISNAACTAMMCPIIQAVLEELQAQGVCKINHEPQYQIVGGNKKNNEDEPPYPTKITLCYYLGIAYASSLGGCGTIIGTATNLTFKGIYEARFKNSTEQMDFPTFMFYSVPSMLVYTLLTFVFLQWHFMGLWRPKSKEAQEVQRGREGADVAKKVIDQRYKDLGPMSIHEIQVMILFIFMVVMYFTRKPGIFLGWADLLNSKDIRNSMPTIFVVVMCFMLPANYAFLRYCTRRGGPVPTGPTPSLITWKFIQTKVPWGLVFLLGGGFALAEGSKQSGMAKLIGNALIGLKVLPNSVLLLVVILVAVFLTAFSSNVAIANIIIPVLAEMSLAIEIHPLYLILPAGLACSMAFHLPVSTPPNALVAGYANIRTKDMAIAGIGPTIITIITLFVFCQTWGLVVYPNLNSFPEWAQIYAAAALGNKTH

Structure (SMILES)	Maximal velocity (Vmax) (mouse NaCT)	Michaelis-Menten constant (Kt) for transport via mouse NaCT (mouse NaCT)	[^3H]-Succinate transport (NaCT-specific) (mouse NaCT)	[^3H]-Succinate transport, % (mouse NaCT)	[^14C]-Citrate transport (NaCT-specific) (mouse NaCT)	[^14C]-Citrate transport, % (mouse NaCT)	Transport of citrate in cDNA-transfected cells (mouse NaCT; citrate 20 μM)	Transport in mouse NaCT cDNA-transfected cells vs vector alone (mouse NaCT; succinate 50 nM, citrate 20 μM)	Ki (hNaDC3 [1])	Michaelis-Menten constant for succinate, NaDC1 (NaDC1)	Transport of succinate in cDNA-transfected cells (mouse NaCT; succinate 50 nM)	Succinate uptake at physiological concentrations (rat NaDC3)	Uptake of radiolabelled succinate in drIndy cRNA-injected vs water-injected oocytes (drIndy)	Km (hNaDC3 [2])	Michaelis-Menten constant for succinate, NaDC3 (NaDC3)
O=C(O)CC(O)(CC(=O)O)C(=O)O [Citrate]	118±6 pmol/10^6 cells/min	22 ± 2 µM	0.004 ± 0.001 pmol/10^6 cells/min	3%	0.7 ± 0.1 pmol/10^6 cells/min	2%	48.4±1.0 pmol/10^6 cells/min	20.2 fold	2100 ± 300 µM						
O=C(O)CCC(=O)O [Succinate, succinate]	80±5 pmol/10^6 cells/min	33 ± 4 µM	0.007 ± 0.003 pmol/10^6 cells/min	5%	0.1 ± 0.1 pmol/10^6 cells/min	1%		7.8 fold		0.1 to 4.0 mM	42.7±4.6 fmol/10^6 cells/min	0.48±0.01 nmol/10^6 cells/minute	12 fold	20 ± 1 µM	2 to 50 µM
